Reference: paper PMC6441019, “Prospective discovery of small molecule enhancers of an E3 ligase-substrate interaction” (Nature Communications, 2019)
Blank lines part the entries; values can stand above or below the molecule they belong to. Where no end group is shown, it is not given here.

What was measured:
β-TrCP = target: T1, β-TrCP (Homo sapiens, UniProt Q9Y297); assay: TR-FRET peptide binding in absence of compound
T1 construct: 6xHis-SMT3 (N, cleaved yes); made in house; host or cells: E. coli (co-expressed with BirA)
T1 sequence (Q9Y297 1-569 isoform Q9Y297-2): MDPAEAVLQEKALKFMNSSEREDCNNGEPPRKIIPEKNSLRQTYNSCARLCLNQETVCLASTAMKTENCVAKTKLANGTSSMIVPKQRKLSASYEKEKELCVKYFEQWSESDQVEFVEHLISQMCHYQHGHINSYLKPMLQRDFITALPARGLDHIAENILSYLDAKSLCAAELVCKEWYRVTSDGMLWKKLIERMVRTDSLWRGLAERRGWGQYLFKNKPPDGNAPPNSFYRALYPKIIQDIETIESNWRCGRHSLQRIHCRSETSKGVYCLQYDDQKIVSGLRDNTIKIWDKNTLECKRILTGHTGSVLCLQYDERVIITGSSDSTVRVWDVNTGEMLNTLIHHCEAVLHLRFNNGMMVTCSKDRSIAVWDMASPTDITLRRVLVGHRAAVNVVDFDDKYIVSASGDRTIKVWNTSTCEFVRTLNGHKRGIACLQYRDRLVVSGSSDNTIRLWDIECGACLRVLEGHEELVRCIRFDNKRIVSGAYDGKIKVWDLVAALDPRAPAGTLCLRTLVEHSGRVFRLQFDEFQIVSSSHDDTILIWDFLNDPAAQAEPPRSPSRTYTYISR
T1 sequence (P63208 whole entry partner): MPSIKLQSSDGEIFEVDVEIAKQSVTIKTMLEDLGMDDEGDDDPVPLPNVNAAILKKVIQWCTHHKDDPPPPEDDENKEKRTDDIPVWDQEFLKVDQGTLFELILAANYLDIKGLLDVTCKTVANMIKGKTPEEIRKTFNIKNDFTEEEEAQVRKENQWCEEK
Method: (§1) Compounds were incubated in a 20 μl reaction volume with 300 pM biotinylated β-TrCP/Skp1 preincubated with 1.2 nM terbium-coupled streptavidin (Cisbio) and BODIPY-FL labeled β-catenin peptides (see figure legends for peptide details) in a white 384-well microplate (Perkin Elmer ProxiPlate), using a PBS buffer containing 0.01% Triton X-100 and 2 mM DTT with 2% final DMSO. […] Following 1-h incubation, plates were read for TR-FRET signal after excitation at 320 nm and read at 520 and 620 nm using an EnVision plate reader (Perkin Elmer). TR-FRET signal was calculated using a 520/620 nm ratio. Binding and enhancement data were fit to a standard Hill equation (Y = Bmin + (Bmax − Bmin)(X^h)/(X^h + EC50^h)) in Prism (GraphPad). Errors are standard error of the fit.

[1] = target: T2, pSer33/Ser37 β-catenin peptide ubiquitylation by SCFβ-TrCP (Homo sapiens, UniProt P35222+Q9Y297); assay: In vitro ubiquitylation of pSer33/Ser37 β-catenin peptide; format: biochemical
T2 construct: fluorescently-labeled β-catenin peptide (residues 17–60) were ubiquitylated; 6xHis-SMT3 (N, cleaved yes); made in house; host or cells: E. coli (β-TrCP1/Skp1); E. coli or SF9 (Cul1-Rbx1)
T2 sequence (Q9Y297 1-569 isoform Q9Y297-2): as the sequence (Q9Y297 1-569 isoform Q9Y297-2) above
T2 sequence (P63208 whole entry partner, the tested form may be a part): as the sequence (P63208 whole entry partner) above
T2 sequence (Q13616 whole entry partner, the tested form may be a part): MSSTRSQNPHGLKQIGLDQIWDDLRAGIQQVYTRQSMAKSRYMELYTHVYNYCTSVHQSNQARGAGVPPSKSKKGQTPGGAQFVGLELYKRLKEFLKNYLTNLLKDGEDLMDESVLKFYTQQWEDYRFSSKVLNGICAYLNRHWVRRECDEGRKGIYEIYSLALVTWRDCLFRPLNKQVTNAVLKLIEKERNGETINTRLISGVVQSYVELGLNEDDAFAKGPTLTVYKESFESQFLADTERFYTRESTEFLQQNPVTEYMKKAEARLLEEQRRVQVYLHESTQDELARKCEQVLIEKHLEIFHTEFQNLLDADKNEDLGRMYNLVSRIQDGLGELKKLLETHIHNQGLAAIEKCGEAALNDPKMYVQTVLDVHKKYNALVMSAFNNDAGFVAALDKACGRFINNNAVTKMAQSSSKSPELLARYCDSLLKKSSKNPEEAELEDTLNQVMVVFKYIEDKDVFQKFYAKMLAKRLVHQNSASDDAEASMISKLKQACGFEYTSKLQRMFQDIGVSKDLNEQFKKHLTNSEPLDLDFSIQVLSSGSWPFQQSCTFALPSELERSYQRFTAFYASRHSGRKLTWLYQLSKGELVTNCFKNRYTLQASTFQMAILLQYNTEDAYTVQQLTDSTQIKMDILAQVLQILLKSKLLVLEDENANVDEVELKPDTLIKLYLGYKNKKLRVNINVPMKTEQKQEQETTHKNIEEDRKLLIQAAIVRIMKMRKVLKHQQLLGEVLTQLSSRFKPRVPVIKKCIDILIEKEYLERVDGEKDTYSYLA
T2 sequence (P62877 whole entry partner, the tested form may be a part): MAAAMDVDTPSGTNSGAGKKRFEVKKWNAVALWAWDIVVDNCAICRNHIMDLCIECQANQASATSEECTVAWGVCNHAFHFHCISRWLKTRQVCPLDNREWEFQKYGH
T2 sequence (Q15843 1-76 partner limits assumed): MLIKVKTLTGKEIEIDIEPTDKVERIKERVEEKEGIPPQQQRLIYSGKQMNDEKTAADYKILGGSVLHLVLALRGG
T2 sequence (P35222 17-60 limits assumed): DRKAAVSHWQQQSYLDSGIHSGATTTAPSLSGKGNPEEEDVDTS
Method: (§2) Four micromolar of fluorescently-labeled β-catenin peptide (residues 17–60) were ubiquitylated in a buffer containing 25 mM Tris Cl (pH 7.5), 50 mM NaCl, 5 mM MgCl2, 2 mM ATP, and 1 mM DTT at room temperature in the presence of 62.5 μM Ubiquitin, 125 nM Ube1, 1.75 μM Cdc34A, and 100 nM neddylated SCF^β-TrCP in the presence or absence of compound (as indicated). Typically, individual reaction mixes with either Ubiquitin, Ube1 and Cdc34A or β-catenin, SCF^β-TrCP and compound were preincubated and subsequently mixed to initiate β-catenin ubiquitylation. Reactions were quenched by SDS loading buffer, resolved by SDS-PAGE and imaged for fluorescence. For full length β-catenin protein ubiquitylation 400 nM β-catenin and 400 nM SCF^β-TrCP were used instead.

[2] = target: T3, pSer33/S37A β-catenin peptide binding to β-TrCP (Homo sapiens, UniProt P35222+Q9Y297, S37A); assay: TR-FRET binding enhancement assay, pSer33/S37A peptide
T3 construct: titrating BODIPY-FL-labeled β-catenin peptides (residues 17-48) against 300 pM β-TrCP; 6xHis-SMT3 (N, cleaved yes); made in house; host or cells: E. coli (co-expressed with BirA)
T3 sequence (Q9Y297 1-569 isoform Q9Y297-2, stated change not applied): as the sequence (Q9Y297 1-569 isoform Q9Y297-2) above
T3 sequence (P63208 whole entry partner, the tested form may be a part): as the sequence (P63208 whole entry partner) above
T3 sequence (P35222 17-48 S37A limits assumed): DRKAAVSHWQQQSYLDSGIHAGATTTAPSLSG
Method: as §1

[3] = target: T4, pSer33/Ser37 β-catenin:β-TrCP interaction (Homo sapiens, UniProt P35222+Q9Y297); assay: TR-FRET binding enhancement assay, pSer33/Ser37 peptide
T4 construct: titrating BODIPY-FL-labeled β-catenin peptides (residues 17-48) against 300 pM β-TrCP; 6xHis-SMT3 (N, cleaved yes); made in house; host or cells: E. coli (co-expressed with BirA)
T4 sequence (Q9Y297 1-569 isoform Q9Y297-2): as the sequence (Q9Y297 1-569 isoform Q9Y297-2) above
T4 sequence (P63208 whole entry partner, the tested form may be a part): as the sequence (P63208 whole entry partner) above
T4 sequence (P35222 17-48 limits assumed): as the sequence (P35222 17-48 S37A limits assumed) above, with A21S counted along it
Method: as §1

[4] = target: T5, pSer33/Ser37 β-catenin peptide binding to β-TrCP (Homo sapiens, UniProt P35222+Q9Y297); assay: TR-FRET peptide binding and cooperativity assay, pSer33/Ser37 peptide; conditions: ratio of peptide KD without and with saturating enhancer; pSer33/Ser37
T5 construct: titrating BODIPY-FL-labeled β-catenin peptides (residues 17-48) against 300 pM β-TrCP; 6xHis-SMT3 (N, cleaved yes); made in house; host or cells: E. coli (co-expressed with BirA)
Method: as §1

[5] = target: T6, pSer33/S37A β-catenin peptide ubiquitylation by SCFβ-TrCP (Homo sapiens, UniProt P35222+Q9Y297, S37A); assay: In vitro ubiquitylation of pSer33/S37A β-catenin peptide; format: biochemical
T6 construct: fluorescently-labeled β-catenin peptide (residues 17–60; as indicated) was ubiquitylated; 6xHis-SMT3 (N, cleaved yes); made in house; host or cells: E. coli (β-TrCP1/Skp1); E. coli or SF9 (Cul1-Rbx1)
Method: as §2

[6] = target: T7, full-length S33E/S37A β-catenin protein ubiquitylation by SCFβ-TrCP (Homo sapiens, UniProt P35222+Q9Y297, S33E/S37A); assay: In vitro ubiquitylation of full-length S33E/S37A β-catenin protein; format: biochemical; conditions: 20 μM compound
T7 construct: 6xHis-SMT3 (N, cleaved yes); host or cells: HEK293T (β-catenin); E. coli (β-TrCP1/Skp1); E. coli or SF9 (Cul1-Rbx1)
Method: as §2

[7] = target: T8, S33E/S37A β-catenin peptide binding to β-TrCP (Homo sapiens, UniProt P35222+Q9Y297, S33E/S37A); assay: TR-FRET peptide binding assay, S33E/S37A peptide; conditions: read-out: binding affinity of S33E/S37A peptide
T8 construct: titrating BODIPY-FL-labeled β-catenin peptides (residues 17-48) against 300 pM β-TrCP; 6xHis-SMT3 (N, cleaved yes); made in house; host or cells: E. coli (co-expressed with BirA)
T8 sequence (Q9Y297 1-569 isoform Q9Y297-2, stated change not applied, one chain of several): as the sequence (Q9Y297 1-569 isoform Q9Y297-2) above
T8 sequence (P63208 whole entry partner, one chain of several, the tested form may be a part): as the sequence (P63208 whole entry partner) above
Method: as §1

[8] = target: T8, S33E/S37A β-catenin peptide binding to β-TrCP; assay: TR-FRET binding enhancement assay, S33E/S37A peptide; conditions: 1% binding saturation
Method: as §1

[9] = target: T3, pSer33/S37A β-catenin peptide binding to β-TrCP; assay: TR-FRET peptide binding and cooperativity assay, pSer33/S37A peptide
Method: as §1

[10] = target: T9, S33E/S37A β-catenin peptide ubiquitylation by SCFβ-TrCP (Homo sapiens, UniProt P35222+Q9Y297, S33E/S37A); assay: In vitro ubiquitylation of S33E/S37A β-catenin peptide; format: biochemical; conditions: 20 μM compound
T9 construct: fluorescently-labeled S33E/S37A β-catenin peptide (residues 17–60) was ubiquitylated; 6xHis-SMT3 (N, cleaved yes); made in house; host or cells: E. coli (β-TrCP1/Skp1); E. coli or SF9 (Cul1-Rbx1)
Method: as §2

decrease in binding affinity relative to pSer33/S37A peptide (β-TrCP): > 10 fold
Molecule: Ac-CDRKAAVSHWQQQSYLDEGIHAGATTTAPSLSG [S33E/S37A]

ligand concentration at which ubiquitin chain formation resembles WT pSer33/pSer37 peptide [1]: ≥ 16 μM
enhancement of ubiquitylation of pSer33/Ser37 β-catenin peptide ([1]; peptide residues 17–60): markedly enhances
EC50 [2]: 22.9 ± 1.4 µM
EC50 [3]: 80 ± 4 µM
cooperativity of binding [4]: 13 fold
Molecule: O=C(O)c1cccc(NC(=O)c2c(Oc3ccccc3)cc(C(F)(F)F)[nH]c2=O)c1 [NRX-2663]

concentration giving ubiquitylation greater than WT pSer33/pSer37 levels [5]: 250 nM
ubiquitylation of full-length S33E/S37A β-catenin protein [6]: strongly ubiquitylated
Kd [7]: 0.022 µM
EC50 [8]: 3.9 ± 0.1 µM
cooperativity of peptide binding to β-TrCP [9]: 1000 fold
ubiquitylation of S33E/S37A β-catenin peptide [10]: robust time-dependent ubiquitylation
Molecule: O=C(O)c1cccc(NC(=O)c2c(Sc3c(Cl)cccc3Cl)cc(C(F)(F)F)[nH]c2=O)c1 [NRX-103094]
